Assays:
[1] = biological target: recombinant human histamine H4 receptor (Homo sapiens, UniProt Q9H3N8); conditions: histamine 100 pM-100 uM, forskolin 3 uM
[2] = tested on: croton oil induced topical inflammation in mice; conditions: H4 ANTAG #1 10 mg/kg

Sequence of recombinant human histamine H4 receptor (Q9H3N8 whole entry): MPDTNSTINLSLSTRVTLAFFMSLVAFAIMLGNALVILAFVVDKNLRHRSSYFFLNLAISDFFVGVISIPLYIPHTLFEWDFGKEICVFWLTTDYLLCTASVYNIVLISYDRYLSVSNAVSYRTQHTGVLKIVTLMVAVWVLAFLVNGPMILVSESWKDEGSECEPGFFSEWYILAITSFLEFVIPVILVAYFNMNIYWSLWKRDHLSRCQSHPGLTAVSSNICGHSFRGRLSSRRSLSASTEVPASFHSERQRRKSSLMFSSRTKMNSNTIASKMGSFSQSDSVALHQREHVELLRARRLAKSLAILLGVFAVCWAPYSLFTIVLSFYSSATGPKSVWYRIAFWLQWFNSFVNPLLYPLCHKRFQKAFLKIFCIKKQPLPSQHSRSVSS

Structure (SMILES)	Activation of the receptor (decrease of cAMP content in response to forskolin) [1]	Difference in ear thickness (×0.01 mm), Mean ([2]; s.c. 30 min before and 2, 4 h after croton oil, Indomethacin 30 mg/kg, measured 6 h after croton oil) [×0.01 mm]	% inhib of ear swelling ([2]; versus vehicle group, Indomethacin 30 mg/kg s.c.)
NCCc1c[nH]cn1 [Histamine]	specifically activated		
COc1ccc2c(c1)c(CC(=O)O)c(C)n2C(=O)c1ccc(Cl)cc1 [Indomethacin]		10.0	(−40%)

Source: patent US20040105856A1 (priority 2002, published 2004)
